# Laboratory results as given in patent US20230399341A1, “7-PHENYL SUBSTITUTED 2-AMINOQUINAZOLINE INHIBITORS OF HPK1” (MERCK SHARP & DOHME LLC, priority 2020, published 2023).
# Target: T1, Human HPK1, catalytic domain (Homo sapiens, UniProt Q92918)
# T1 sequence (Q92918 1-346): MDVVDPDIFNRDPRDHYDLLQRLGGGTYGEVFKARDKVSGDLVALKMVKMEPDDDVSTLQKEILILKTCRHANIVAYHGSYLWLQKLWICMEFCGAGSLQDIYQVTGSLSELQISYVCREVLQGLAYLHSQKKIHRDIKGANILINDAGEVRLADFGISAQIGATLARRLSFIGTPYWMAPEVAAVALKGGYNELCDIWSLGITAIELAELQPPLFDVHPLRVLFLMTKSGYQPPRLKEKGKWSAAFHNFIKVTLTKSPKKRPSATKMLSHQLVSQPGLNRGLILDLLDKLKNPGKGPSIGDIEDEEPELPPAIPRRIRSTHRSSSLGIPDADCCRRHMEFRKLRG
# Test: HPK1-SLP76 TR-FRET Assay
# Format: biochemical
# Settings: 75 pM HPK1, ATP 10 uM, SLP76 10 nM, 30 min pre-incubation, 60 min reaction
row,SMILES,IC50 [nM]
1,"Cc1c(-c2cc3nc(Nc4ccc(CS(=O)(=O)C(C)C)cc4)ncc3c(N)c2F)cnc2c1NCCO2 [Compound 2-157, 6-fluoro-7-(8-methyl-2,3-dihydro-1H-pyrido[2,3-b][1,4]oxazin-7-yl)-N~2~- (4-{[(propan-2-yl)sulfonyl]methyl}phenyl) quinazoline-2,5-diamine]",0.0689
2,"Cc1c(-c2cc3nc(Nc4ccc5c(c4)CCN(C)C5)ncc3c(N)c2F)cnc2c1NCCO2 [Compound 2-158, 6-fluoro-7-(8-methyl-2,3-dihydro-1H-pyrido[2,3-b][1,4]oxazin-7-yl)-N~2~- (2-methyl-1,2,3,4-tetrahydroisoquinolin-6-yl)quinazoline-2,5-diamine]",0.0251
3,Cc1c(-c2c(F)c(N)c3cnc(Nc4ccc(N5CCOC5=O)cc4)nc3c2Cl)cnc2c1NCCO2 [Compound 2-159],47
4,"CN1CCc2ccc(Nc3ncc4c(N)c(F)c(-c5cnc6c(c5Cl)NCCO6)cc4n3)cc2C1 [Compound 2-160, 7-(8-chloro-2,3-dihydro-1H-pyrido[2,3-b][1,4]oxazin-7-yl)-6-fluoro-N~2~-(2-methyl-1,2,3,4-tetrahydroisoquinolin-7-yl)quinazoline-2,5-diamine]",0.0326
5,"Cc1c(-c2c(F)c(N)c3cnc(Nc4ccc(CS(C)(=O)=O)cc4)nc3c2Cl)cnc2c1NCC(C)(C)O2 [Compound 2-161, (+ and −)-8-chloro-6-fluoro-N~2~-{4-[(methylsulfonyl)methyl]phenyl}-7-(3,3,8-trimethyl-2,3-dihydro-1H-pyrido[2,3-b][1,4]oxazin-7-yl)quinazoline-2,5-diamine]",0.252
6,"Cc1c(-c2cc3nc(Nc4ccc5c(c4)CN(C)CC5)ncc3c(N)c2F)cnc2nc[nH]c12 [Compound 2-162, 6-fluoro-7-(7-methyl-1H-imidazo[4,5-b]pyridin-6-yl)-N~2~-(2-methyl-1,2,3,4-tetrahydroisoquinolin-7-yl)quinazoline-2,5-diamine]",0.126
7,"Cc1c(-c2c(F)c(N)c3cnc(Nc4ccc(CC(C)(C)O)cc4)nc3c2Cl)cnc2c1NCCO2 [Compound 2-164, 1-(4-{[5-amino-8-chloro-6-fluoro-7-(8-methyl-2,3-dihydro-1H-pyrido[2,3-b][1,4]oxazin-7-yl)quinazolin-2-yl]amino}phenyl)-2-methylpropan-2-ol]",0.487
8,"Cc1c(-c2cc3nc(Nc4ccc(CS(C)(=O)=O)cc4)ncc3c(N)c2F)cnc2c1NCC(C)(C)O2 [Compound 2-165, 6-fluoro-N~2~-{4-[(methylsulfonyl)methyl]phenyl}-7-(3,3,8-trimethyl-2,3-dihydro-1H-pyrido[2,3-b][1,4]oxazin-7-yl)quinazoline-2,5-diamine]",0.103
9,"Cc1c(-c2cc3nc(Nc4ccc5c(c4)CN(C)CC5)ncc3c(N)c2F)cnc2c1NCC(C)(C)O2 [Compound 2-166, 6-fluoro-N~2~-(2-methyl-1,2,3,4-tetrahydroisoquinolin-7-yl)-7-(3,3,8-trimethyl-2,3-dihydro-1H-pyrido[2,3-b][1,4]oxazin-7-yl)quinazoline-2,5-diamine]",0.0589
10,"Cc1c(-c2c(F)c(N)c3cnc(Nc4ccc(CC(C)(C)O)cc4)nc3c2Cl)cnc2c1NCCO2 [Compound 2-167, 1-(4-{[5-amino-8-chloro-6-fluoro-7-(8-methyl-2,3-dihydro-1H-pyrido[2,3-b][1,4]oxazin-7-yl)quinazolin-2-yl]amino}phenyl)-2-methylpropan-2-ol]",70.5
11,"COc1cc(CS(=O)(=O)C(C)C)ccc1Nc1ncc2c(N)c(F)c(-c3cnc4c(c3C)NCCO4)cc2n1 [Compound 2-168, 6-fluoro-N~2~-(2-methoxy-4-{[(propan-2-yl)sulfonyl]methyl}phenyl)-7-(8-methyl-2,3-dihydro-1H-pyrido[2,3-b][1,4]oxazin-7-yl)quinazoline-2,5-diamine]",0.104
12,"COc1cc2c(cc1Nc1ncc3c(N)c(F)c(-c4cnc5c(c4C)NCCO5)c(Cl)c3n1)CN(C)CC21CC1 [Compound 2-169, 8-chloro-6-fluoro-N~2~- (6′-methoxy-2′-methyl-2′,3′-dihydro-1′H-spiro[cyclopropane-1,4′-isoquinolin]-7′-yl)-7-(8-methyl-2,3-dihydro-1H-pyrido[2,3-b][1,4]oxazin-7-yl)quinazoline-2,5-diamine]",4.97
13,"Cc1c(-c2cc3nc(Nc4ccc([S+](C)[O-])cc4)ncc3c(N)c2F)cnc2c1NCCO2 (stereo not drawn) [Compound 2-170, 6-fluoro-7-(8-methyl-2,3-dihydro-1H-pyrido[2,3-b][1,4]oxazin-7-yl)-N~2~- [4-(methylsulfinyl)phenyl] quinazoline-2,5-diamine]",0.0392
14,"Cc1c(-c2cc3nc(Nc4cc5c(cc4F)CCN(C(C)C)C5)ncc3c(N)c2F)cnc2c1NCCO2 [Compound 2-171, 6-fluoro-N~2~-[6-fluoro-2-(propan-2-yl)-1,2,3,4-tetrahydroisoquinolin-7-yl]-7-(8-methyl-2,3-dihydro-1H-pyrido[2,3-b][1,4]oxazin-7-yl)quinazoline-2,5-diamine]",0.0507
15,"Cc1ccc(F)cc1-c1cc2nc(Nc3ccc(CS(C)(=O)=O)cc3)ncc2c(N)c1F [Compound 2-172, 6-fluoro-7-(5-fluoro-2-methylphenyl)-N~2~-{4-[(methylsulfonyl)methyl]phenyl}quinazoline-2,5-diamine]",24.6
16,"CCc1ccc(Nc2ncc3c(N)c(F)c(-c4cnc5c(c4C)NCCO5)cc3n2)cn1 [Compound 2-173, N~2~-(6-ethylpyridin-3-yl)-6-fluoro-7-(8-methyl-2,3-dihydro-1H-pyrido[2,3-b][1,4]oxazin-7-yl)quinazoline-2,5-diamine]",0.128
17,"Cc1ccc(F)cc1-c1cc2nc(Nc3ccc4c(c3)CN(C)CC4)ncc2c(N)c1F [Compound 2-174, 6-fluoro-7-(5-fluoro-2-methylphenyl)-N~2~-(2-methyl-1,2,3,4-tetrahydroisoquinolin-7-yl)quinazoline-2,5-diamine]",11.4
18,"Cc1c(-c2cc3nc(Nc4cnc5c(c4)CN(C(C)C)CC5)ncc3c(N)c2F)cnc2c1NCCO2 [Compound 2-175, 6-fluoro-7-(8-methyl-2,3-dihydro-1H-pyrido[2,3-b][1,4]oxazin-7-yl)-N~2~- [6-(propan-2-yl)-5,6,7,8-tetrahydro-1,6-naphthyridin-3-yl]quinazoline-2,5-diamine]",0.0298
19,"COc1cc(C2CC2)ccc1Nc1ncc2c(N)c(F)c(-c3cnc4c(c3C)NCCO4)cc2n1 [Compound 2-176, N~2~-(4-cyclopropyl-2-methoxyphenyl)-6-fluoro-7-(8-methyl-2,3-dihydro-1H-pyrido[2,3-b][1,4]oxazin-7-yl)quinazoline-2,5-diamine]",17.2
20,"COc1cc(C)ccc1Nc1ncc2c(N)c(F)c(-c3cnc4c(c3C)NCCO4)cc2n1 [Compound 2-177, 6-fluoro-N~2~-(2-methoxy-4-methylphenyl)-7-(8-methyl-2,3-dihydro-1H-pyrido[2,3-b][1,4]oxazin-7-yl)quinazoline-2,5-diamine]",4.08
21,"Cc1c(-c2cc3nc(Nc4ccc(CC(C)(C)O)cc4)ncc3c(N)c2F)cnc2c1NCCO2 [Compound 2-178, 1-(4-{[5-amino-6-fluoro-7-(8-methyl-2,3-dihydro-1H-pyrido[2,3-b][1,4]oxazin-7-yl)quinazolin-2-yl]amino}phenyl)-2-methylpropan-2-ol]",0.0933
22,"COc1nc(C2(C#N)CC2)ccc1Nc1ncc2c(N)c(F)c(-c3cnc4c(c3C)NCCO4)c(Cl)c2n1 [Compound 2-181, (+ or −)-1-(5-{[5-amino-8-chloro-6-fluoro-7-(8-methyl-2,3-dihydro-1H-pyrido[2,3-b][1,4]oxazin-7-yl)quinazolin-2-ylamino}-6-methoxypyridin-2-yl)cyclopropane-1-carbonitrile]",100
23,"COc1nc(C2(C#N)CC2)ccc1Nc1ncc2c(N)c(F)c(-c3cnc4c(c3C)NCCO4)c(Cl)c2n1 [Compound 2-182, (+ or −)-1-(5-{[5-amino-8-chloro-6-fluoro-7-(8-methyl-2,3-dihydro-1H-pyrido[2,3-b][1,4]oxazin-7-yl)quinazolin-2-yl]amino}-6-methoxypyridin-2-yl)cyclopropane-1-carbonitrile]",32.7
24,"Cc1c(-c2cc3nc(Nc4cnc5c(c4)CN(C)CC5)ncc3c(N)c2F)cnc2c1NCCO2 [Compound 2-183, 6-fluoro-7-(8-methyl-2,3-dihydro-1H-pyrido[2,3-b][1,4]oxazin-7-yl)-N~2~- (6-methyl-5,6,7,8-tetrahydro-1,6-naphthyridin-3-yl)quinazoline-2,5-diamine]",0.0379
25,"Cc1c(-c2c(F)c(N)c3cnc(Nc4cc5c(cc4F)CCN(C)C5)nc3c2Cl)cnc2c1NCCO2 [Compound 2-184, (+ and −)-8-chloro-6-fluoro-N~2~-(6-fluoro-2-methyl-1,2,3,4-tetrahydroisoquinolin-7-yl)-7-(8-methyl-2,3-dihydro-1H-pyrido[2,3-b][1,4]oxazin-7-yl)quinazoline-2,5-diamine]",3.67
26,"Cc1c(-c2c(F)c(N)c3cnc(Nc4cc5c(cc4F)CCN(C)C5)nc3c2Cl)cnc2c1NCCO2 [Compound 2-185, (+ and −)-8-chloro-6-fluoro-N~2~-(6-fluoro-2-methyl-1,2,3,4-tetrahydroisoquinolin-7-yl)-7-(8-methyl-2,3-dihydro-1H-pyrido[2,3-b][1,4]oxazin-7-yl)quinazoline-2,5-diamine]",0.0303
27,"CNC(=O)C(F)(F)c1ccc(Nc2ncc3c(N)c(F)c(-c4cnc5c(c4C)NCCO5)cc3n2)cc1 [Compound 2-186, 2-(4-{[5-amino-6-fluoro-7-(8-methyl-2,3-dihydro-1H-pyrido[2,3-b][1,4]oxazin-7-yl)quinazolin-2-yl]amino}phenyl)-2,2-difluoro-N-methylacetamide]",0.136
